According to ChEMBL document CHEMBL4406818, “Xanthone derivatives from the leaves of Garcinia oligantha” (2019):
Active and inactive are the calls of the source. No cut-off for these calls is given here.

Tests used:
LNCaP [1] = assay: Cytotoxicity against quiescent human LNCAP cells assessed as induction of cell death at 20 uM measured after 24 hrs by SYBR green dye based fluorescence analysis; assay type: functional
LNCaP [2] = assay: Induction of cell death in quiescent human LNCAP cells assessed as proportion of dead cells at 5 uM measured after 24 hrs by propidium iodide staining based flow cytometry analysis (reference value: 4.90 %); assay type: functional
LNCaP [3] = assay: Induction of cell death in quiescent human LNCAP cells assessed as proportion of live cells at 10 uM measured after 24 hrs by propidium iodide staining based flow cytometry analysis (reference value: 95.1%); assay type: functional
LNCaP [4] = assay: Induction of apoptosis in quiescent human LNCAP cells assessed as decrease in caspase-9 protein expression at 8 to 12 uM measured after 24 hrs by Western blot analysis; assay type: functional, cell-based
LNCaP [5] = assay: Induction of apoptosis in quiescent human LNCAP cells assessed as decrease in Bcl-2 protein expression at 8 to 12 uM measured after 24 hrs by Western blot analysis; assay type: functional, cell-based
LNCaP [6] = assay: Induction of cell death in quiescent human LNCAP cells assessed as proportion of live cells at 5 uM measured after 24 hrs by propidium iodide staining based flow cytometry analysis (reference value: 95.1%); assay type: functional
LNCaP [7] = assay: Induction of apoptosis in quiescent human LNCAP cells assessed as increase in caspase-3 activity at 8 to 12 uM measured after 24 hrs; assay type: functional, cell-based
LNCaP [8] = assay: Induction of cell death in quiescent human LNCAP cells assessed as proportion of dead cells at 7.5 uM measured after 24 hrs by propidium iodide staining based flow cytometry analysis (reference value: 4.90 %); assay type: functional
LNCaP [9] = assay: Induction of apoptosis in quiescent human LNCAP cells assessed as chromatin condensation at periphery of nucleus at 5 to 12 uM measured after 24 hrs by Hoechst staining based fluorescent microscopy; assay type: functional, cell-based
LNCaP [10] = assay: Induction of cell death in quiescent human LNCAP cells assessed as proportion of dead cells at 10 uM measured after 24 hrs by propidium iodide staining based flow cytometry analysis (reference value: 4.90 %); assay type: functional
LNCaP [11] = assay: Induction of cell death in quiescent human LNCAP cells assessed as proportion of live cells at 7.5 uM measured after 24 hrs by propidium iodide staining based flow cytometry analysis (reference value: 95.1%); assay type: functional
LNCaP [12] = assay: Induction of apoptosis in quiescent human LNCAP cells assessed as decrease in caspase-3 protein expression at 8 to 12 uM measured after 24 hrs by Western blot analysis; assay type: functional, cell-based
LNCaP [13] = assay: Induction of apoptosis in quiescent human LNCAP cells assessed as nucleus fragmentation at 5 to 12 uM measured after 24 hrs by Hoechst staining based fluorescent microscopy; assay type: functional, cell-based
LNCaP [14] = assay: Induction of apoptosis in quiescent human LNCAP cells assessed as chromatin condensation at periphery of nucleus at 5 to 12 uM measured after 24 hrs by phase contrast microscopy; assay type: functional, cell-based
LNCaP [15] = assay: Induction of apoptosis in quiescent human LNCAP cells assessed as nucleus fragmentation at 5 to 12 uM measured after 24 hrs by phase contrast microscopy; assay type: functional, cell-based
LNCaP [16] = assay: Cytotoxicity against quiescent human LNCAP cells assessed as induction of cell death measured after 24 hrs by […] dye based fluorescence analysis; assay type: functional
LNCaP [17] = assay: Induction of cell death in quiescent human LNCAP cells assessed as proportion of live cells at 20 uM measured after 24 hrs by propidium iodide staining based flow cytometry analysis (reference value: 95.1%); assay type: functional
LNCaP [18] = assay: Induction of cell death in quiescent human LNCAP cells assessed as proportion of dead cells at 20 uM measured after 24 hrs by propidium iodide staining based flow cytometry analysis (reference value: 4.90 %); assay type: functional

CC(C)=CCCC(C)(O)[C@@H]1C[C@@]23CC=C(C)CO[C@]2(O1)C(=O)c1oc2c4c(cc(O)c2c(=O)c13)OC(C)(C)C=C4 (stereo partly specified)
Activity (LNCaP [1]): Active

COC(=O)C1(O)C(=O)C(CC=C(C)C)(CC=C(C)C)c2c1oc1c3c(cc(O)c1c2=O)OC(C)(C)C=C3 (stereo unspecified)
Activity (LNCaP [1]): Active

CC(C)=CCCC(C)(O)[C@@H]1C[C@@]2(CC=C(C)C)C(=C(O)C(=O)c3oc4c5c(cc(O)c4c(=O)c32)OC(C)(C)C=C5)O1 (stereo partly specified)
Activity (LNCaP [1]): Active

COC(=O)[C@]1(O)C(=O)[C@](CC=C(C)C)(C/C=C(\C)CCC=C(C)C)c2c1oc1c(CC=C(C)C)c(O)cc(O)c1c2=O
Activity (LNCaP [2]): 12.4% | Activity (LNCaP [3]): 29.9% | Activity (LNCaP [1]): Active | Activity (LNCaP [4]): Active | Activity (LNCaP [5]): Active | Activity (LNCaP [6]): 87.6% | Activity (LNCaP [7]): Active | Activity (LNCaP [8]): 50.1% | Activity (LNCaP [9]): Active | Activity (LNCaP [10]): 70.1% | Activity (LNCaP [11]): 49.9% | Activity (LNCaP [12]): Active | Activity (LNCaP [13]): Active | Activity (LNCaP [14]): Active | Activity (LNCaP [15]): Active | Activity (LNCaP [16]): Dose-dependent effect

COC(=O)c1oc2c(CC=C(C)C)c(O)cc(O)c2c(=O)c1C(CC=C(C)C)(CC=C(C)C)C(=O)O
Activity (LNCaP [1]): Active

CC(C)=CCc1c(O)cc(O)c2c(=O)c3c(oc12)C(=O)[C@@]1(O)C(=O)[C@]3(CC=C(C)C)C[C@@H]2C(C)(C)CCC[C@]21C
Activity (LNCaP [1]): Active

CC(C)=CCC/C(C)=C/C[C@@]12C[C@H](C(C)(C)O)OC1=C(O)C(=O)c1oc3c4c(cc(O)c3c(=O)c12)OC(C)(C)C=C4
Activity (LNCaP [1]): Active

COC(=O)C12OC(=O)C(CC=C(C)C)(CC=C(C)C)C1C(=O)c1c(O)cc3c(c1O2)C=CC(C)(C)O3 (racemic)
Activity (LNCaP [1]): Active

CC(=O)O[C@H]1C(=O)[C@@]2(C)[C@H]([C@H](OC(=O)c3ccccc3)[C@]3(O)C[C@H](OC(=O)[C@H](O)[C@@H](NC(=O)c4ccccc4)c4ccccc4)C(C)=C1C3(C)C)[C@]1(OC(C)=O)CO[C@@H]1C[C@@H]2O [PACLITAXEL]
Activity (LNCaP [1]): inactive | Activity (LNCaP [17]): 92.9% | Activity (LNCaP [18]): 7.08%
